{
  "source": "PubChem BioAssay (NCI)",
  "test_in_all_cases": "DTP human tumour cell line panel, 48 h",
  "key": {"[1]": {"tested_on": "RXF 393 renal"}, "[2]": {"tested_on": "MDA-MB-231 breast"}, "[3]": {"tested_on": "SNB-75 CNS"}, "[4]": {"tested_on": "HOP-62 NSCLC"}, "[5]": {"tested_on": "SR leukemia"}, "[6]": {"tested_on": "K-562 leukemia"}, "[7]": {"tested_on": "SK-MEL-5 melanoma"}, "[8]": {"tested_on": "SNB-19 CNS"}, "[9]": {"tested_on": "MOLT-4 leukemia"}, "[10]": {"tested_on": "MCF7 breast"}, "[11]": {"tested_on": "A549 NSCLC"}, "[12]": {"tested_on": "NCI/ADR-RES ovarian"}, "[13]": {"tested_on": "SF-539 CNS"}, "[14]": {"tested_on": "U251 CNS"}, "[15]": {"tested_on": "ACHN renal"}, "[16]": {"tested_on": "HT29 colon"}, "[17]": {"tested_on": "PC-3 prostate"}, "[18]": {"tested_on": "SN12C renal"}, "[19]": {"tested_on": "HL-60(TB) leukemia"}, "[20]": {"tested_on": "RPMI-8226 leukemia"}, "[21]": {"tested_on": "SK-OV-3 ovarian"}, "[22]": {"tested_on": "786-0 renal"}, "[23]": {"tested_on": "TK-10 renal"}, "[24]": {"tested_on": "UO-31 renal"}, "[25]": {"tested_on": "OVCAR-4 ovarian"}, "[26]": {"tested_on": "HCT-116 colon"}, "[27]": {"tested_on": "DU-145 prostate"}, "[28]": {"tested_on": "HS 578T breast"}, "[29]": {"tested_on": "OVCAR-8 ovarian"}, "[30]": {"tested_on": "CAKI-1 renal"}, "[31]": {"tested_on": "SF-268 CNS"}, "[32]": {"tested_on": "HCT-15 colon"}, "[33]": {"tested_on": "SK-MEL-2 melanoma"}, "[34]": {"tested_on": "OVCAR-5 ovarian"}, "[35]": {"tested_on": "NCI-H460 lung"}, "[36]": {"tested_on": "KM12 colon"}, "[37]": {"tested_on": "NCI-H522 lung"}, "[38]": {"tested_on": "MALME-3M melanoma"}, "[39]": {"tested_on": "M14 melanoma"}, "[40]": {"tested_on": "NCI-H23 lung"}, "[41]": {"tested_on": "HOP-92 NSCLC"}, "[42]": {"tested_on": "A498 renal"}, "[43]": {"tested_on": "IGROV1 ovarian"}, "[44]": {"tested_on": "COLO 205 colon"}, "[45]": {"tested_on": "UACC-257 melanoma"}, "[46]": {"tested_on": "UACC-62 melanoma"}, "[47]": {"tested_on": "SK-MEL-28 melanoma"}, "[48]": {"tested_on": "MDA-MB-435"}, "[49]": {"tested_on": "SW-620 colon"}, "[50]": {"tested_on": "SF-295 CNS"}, "[51]": {"tested_on": "NCI-H226 lung"}, "[52]": {"tested_on": "T-47D breast"}, "[53]": {"tested_on": "MDA-N"}, "[54]": {"tested_on": "EKVX NSCLC"}, "[55]": {"tested_on": "CCRF-CEM leukemia"}, "[56]": {"tested_on": "HCC-2998 colon"}},
  "note": "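Method: 48-hour compound exposure of cells in 96-well plates, five concentrations, linear interpolation of endpoints. TGI is the concentration that stops growth completely.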",
  "data": [
    {"compound": "Cc1ccc(S(=O)(=O)NNC(=O)Nc2ccc(Cl)cc2)cc1", "values": [
      {"measurement": "TGI", "setting": "[1]", "result": "> 100", "unit": "µM"},
      {"measurement": "TGI", "setting": "[2]", "result": "> 100", "unit": "µM"},
      {"measurement": "TGI", "setting": "[3]", "result": 99.7, "unit": "µM"},
      {"measurement": "TGI", "setting": "[4]", "result": "> 100", "unit": "µM"},
      {"measurement": "TGI", "setting": "[5]", "result": "> 100", "unit": "µM"},
      {"measurement": "TGI", "setting": "[6]", "result": "> 100", "unit": "µM"},
      {"measurement": "TGI", "setting": "[7]", "result": "> 100", "unit": "µM"},
      {"measurement": "TGI", "setting": "[8]", "result": "> 100", "unit": "µM"},
      {"measurement": "TGI", "setting": "[9]", "result": "> 100", "unit": "µM"},
      {"measurement": "TGI", "setting": "[10]", "result": "> 100", "unit": "µM"},
      {"measurement": "TGI", "setting": "[11]", "result": "> 100", "unit": "µM"},
      {"measurement": "TGI", "setting": "[12]", "result": "> 100", "unit": "µM"},
      {"measurement": "TGI", "setting": "[13]", "result": "> 100", "unit": "µM"},
      {"measurement": "TGI", "setting": "[14]", "result": "> 100", "unit": "µM"},
      {"measurement": "TGI", "setting": "[15]", "result": "> 100", "unit": "µM"},
      {"measurement": "TGI", "setting": "[16]", "result": "> 100", "unit": "µM"},
      {"measurement": "TGI", "setting": "[17]", "result": "> 100", "unit": "µM"},
      {"measurement": "TGI", "setting": "[18]", "result": "> 100", "unit": "µM"},
      {"measurement": "TGI", "setting": "[19]", "result": "> 100", "unit": "µM"},
      {"measurement": "TGI", "setting": "[20]", "result": "> 100", "unit": "µM"},
      {"measurement": "TGI", "setting": "[21]", "result": "> 100", "unit": "µM"},
      {"measurement": "TGI", "setting": "[22]", "result": "> 100", "unit": "µM"},
      {"measurement": "TGI", "setting": "[23]", "result": "> 100", "unit": "µM"},
      {"measurement": "TGI", "setting": "[24]", "result": "> 100", "unit": "µM"},
      {"measurement": "TGI", "setting": "[25]", "result": "> 100", "unit": "µM"},
      {"measurement": "TGI", "setting": "[26]", "result": "> 100", "unit": "µM"},
      {"measurement": "TGI", "setting": "[27]", "result": "> 100", "unit": "µM"},
      {"measurement": "TGI", "setting": "[28]", "result": "> 100", "unit": "µM"},
      {"measurement": "TGI", "setting": "[29]", "result": "> 100", "unit": "µM"},
      {"measurement": "TGI", "setting": "[30]", "result": "> 100", "unit": "µM"},
      {"measurement": "TGI", "setting": "[31]", "result": "> 100", "unit": "µM"},
      {"measurement": "TGI", "setting": "[32]", "result": "> 100", "unit": "µM"},
      {"measurement": "TGI", "setting": "[33]", "result": "> 100", "unit": "µM"},
      {"measurement": "TGI", "setting": "[34]", "result": "> 100", "unit": "µM"},
      {"measurement": "TGI", "setting": "[35]", "result": "> 100", "unit": "µM"},
      {"measurement": "TGI", "setting": "[36]", "result": "> 100", "unit": "µM"},
      {"measurement": "TGI", "setting": "[37]", "result": "> 100", "unit": "µM"},
      {"measurement": "TGI", "setting": "[38]", "result": "> 100", "unit": "µM"},
      {"measurement": "TGI", "setting": "[39]", "result": "> 100", "unit": "µM"},
      {"measurement": "TGI", "setting": "[40]", "result": "> 100", "unit": "µM"},
      {"measurement": "TGI", "setting": "[41]", "result": "> 100", "unit": "µM"},
      {"measurement": "TGI", "setting": "[42]", "result": "> 100", "unit": "µM"},
      {"measurement": "TGI", "setting": "[43]", "result": "> 100", "unit": "µM"},
      {"measurement": "TGI", "setting": "[44]", "result": "> 100", "unit": "µM"},
      {"measurement": "TGI", "setting": "[45]", "result": "> 100", "unit": "µM"},
      {"measurement": "TGI", "setting": "[46]", "result": "> 100", "unit": "µM"},
      {"measurement": "TGI", "setting": "[47]", "result": "> 100", "unit": "µM"},
      {"measurement": "TGI", "setting": "[48]", "result": "> 100", "unit": "µM"},
      {"measurement": "TGI", "setting": "[49]", "result": "> 100", "unit": "µM"},
      {"measurement": "TGI", "setting": "[50]", "result": "> 100", "unit": "µM"},
      {"measurement": "TGI", "setting": "[51]", "result": "> 100", "unit": "µM"},
      {"measurement": "TGI", "setting": "[52]", "result": "> 100", "unit": "µM"},
      {"measurement": "TGI", "setting": "[53]", "result": "> 100", "unit": "µM"},
      {"measurement": "TGI", "setting": "[54]", "result": "> 100", "unit": "µM"},
      {"measurement": "TGI", "setting": "[55]", "result": "> 100", "unit": "µM"},
      {"measurement": "TGI", "setting": "[56]", "result": "> 100", "unit": "µM"}
    ]}
  ]
}
